Assay results as given in patent US20240300932A1, “N-PHENYLIMINE DERIVATIVE AND PREPARATION METHOD AND USE THEREOF” (Guizhou University, priority 2023, published 2024).

Columns and labels:
Test in all cases: Post-emergence herbicidal activity test (stem and leaf spray, pot culture)
Assay type in all cases: in vivo
Conditions in all cases: 3 weeks after spraying
Abutilon theophrasti = test system: Abutilon theophrasti
How it was run: (§1)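 Graded 0–5 on fresh-weight growth control rate 3 weeks after a single spray-tower application at 10, 5 or 2.5 g/mu. Compounds in acetone with Tween 80 and methyl oleate synergist (1.5 liters/ha), applied to greenhouse weeds at 2- to 3-leaf stage.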

Amaranthus retroflexus = test system: Amaranthus retroflexus
How it was run: as §1

Echinochloa crusgalli = test system: Echinochloa crusgalli
How it was run: as §1

Portulaca oleracea = test system: Portulaca oleracea
How it was run: as §1

Setaria viridis = test system: Setaria viridis
How it was run: as §1

Trifoliumre pensL. = test system: Trifoliumre pensL.
How it was run: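 Pot-grown weeds in loam (pH 7), greenhouse at 20–30 °C, sprayed once post-emergence at the 2–3-leaf stage. Compound in acetone with Tween 80 plus methyl oleate oil (1.5 L/ha), applied at 10, 5 and 2.5 g/mu by spray tower. Effect scored 3 weeks after spraying, averaged over three repeats.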

Structure (SMILES)	Post-emergence herbicidal activity, A. theophrasti (grade) (Abutilon theophrasti; dosage 2.5 g/mu)	Post-emergence herbicidal activity, A. theophrasti (grade) (Abutilon theophrasti; dosage 5 g/mu)	Post-emergence herbicidal activity, A. theophrasti (grade) (Abutilon theophrasti; dosage 10 g/mu)	Post-emergence herbicidal activity, A. retroflexus (grade) (Amaranthus retroflexus; dosage 2.5 g/mu)	Post-emergence herbicidal activity, A. retroflexus (grade) (Amaranthus retroflexus; dosage 5 g/mu)	Post-emergence herbicidal activity, A. retroflexus (grade) (Amaranthus retroflexus; dosage 10 g/mu)	Post-emergence herbicidal activity, E. crusgalli (grade) (Echinochloa crusgalli; dosage 2.5 g/mu)	Post-emergence herbicidal activity, E. crusgalli (grade) (Echinochloa crusgalli; dosage 5 g/mu)	Post-emergence herbicidal activity, E. crusgalli (grade) (Echinochloa crusgalli; dosage 10 g/mu)	Post-emergence herbicidal activity, P. oleracea (grade) (Portulaca oleracea; dosage 2.5 g/mu)	Post-emergence herbicidal activity, P. oleracea (grade) (Portulaca oleracea; dosage 5 g/mu)	Post-emergence herbicidal activity, P. oleracea (grade) (Portulaca oleracea; dosage 10 g/mu)	Post-emergence herbicidal activity, S. viridis (grade) (Setaria viridis; dosage 2.5 g/mu)	Post-emergence herbicidal activity, S. viridis (grade) (Setaria viridis; dosage 5 g/mu)	Post-emergence herbicidal activity, S. viridis (grade) (Setaria viridis; dosage 10 g/mu)	Post-emergence herbicidal activity, Trifoliumre pensL. (grade) (Trifoliumre pensL.; dosage 2.5 g/mu)	Post-emergence herbicidal activity, Trifoliumre pensL. (grade) (Trifoliumre pensL.; dosage 5 g/mu)	Post-emergence herbicidal activity, Trifoliumre pensL. (grade) (Trifoliumre pensL.; dosage 10 g/mu)
O=C1C2=C(CCCC2)C(=O)N1c1cc(OCc2nnc(-c3ccccc3Br)o2)c(Cl)cc1F [Compound B6]	5 (Grade 5: the growth control rate is greater than or equal to 85%)	5 (Grade 5: the growth control rate is greater than or equal to 85%)	5 (Grade 5: the growth control rate is greater than or equal to 85%)	5 (Grade 5: the growth control rate is greater than or equal to 85%)	5 (Grade 5: the growth control rate is greater than or equal to 85%)	5 (Grade 5: the growth control rate is greater than or equal to 85%)	1 (Grade 1: the growth control rate is greater than or equal to 5% and less than 20%)	2 (Grade 2: the growth control rate is greater than or equal to 20% and less than 40%)	3 (Grade 3: the growth control rate is greater than or equal to 40% and less than 60%)	5 (Grade 5: the growth control rate is greater than or equal to 85%)	5 (Grade 5: the growth control rate is greater than or equal to 85%)	5 (Grade 5: the growth control rate is greater than or equal to 85%)	2 (Grade 2: the growth control rate is greater than or equal to 20% and less than 40%)	3 (Grade 3: the growth control rate is greater than or equal to 40% and less than 60%)	4 (Grade 4: the growth control rate is greater than or equal to 60% and less than 85%)	5 (Grade 5: the growth control rate is greater than or equal to 85%)	5 (Grade 5: the growth control rate is greater than or equal to 85%)	5 (Grade 5: the growth control rate is greater than or equal to 85%)
O=C1C2=C(CCCC2)C(=O)N1c1cc(OCc2nnc(-c3ccccc3I)o2)c(Cl)cc1F [Compound B7]	5 (Grade 5: the growth control rate is greater than or equal to 85%)	5 (Grade 5: the growth control rate is greater than or equal to 85%)	5 (Grade 5: the growth control rate is greater than or equal to 85%)	5 (Grade 5: the growth control rate is greater than or equal to 85%)	5 (Grade 5: the growth control rate is greater than or equal to 85%)	5 (Grade 5: the growth control rate is greater than or equal to 85%)	1 (Grade 1: the growth control rate is greater than or equal to 5% and less than 20%)	2 (Grade 2: the growth control rate is greater than or equal to 20% and less than 40%)	3 (Grade 3: the growth control rate is greater than or equal to 40% and less than 60%)	5 (Grade 5: the growth control rate is greater than or equal to 85%)	5 (Grade 5: the growth control rate is greater than or equal to 85%)	5 (Grade 5: the growth control rate is greater than or equal to 85%)	2 (Grade 2: the growth control rate is greater than or equal to 20% and less than 40%)	3 (Grade 3: the growth control rate is greater than or equal to 40% and less than 60%)	4 (Grade 4: the growth control rate is greater than or equal to 60% and less than 85%)	5 (Grade 5: the growth control rate is greater than or equal to 85%)	5 (Grade 5: the growth control rate is greater than or equal to 85%)	5 (Grade 5: the growth control rate is greater than or equal to 85%)
O=C1C2=C(CCCC2)C(=O)N1c1cc(OCc2nnc(-c3ccccc3[N+](=O)[O-])o2)c(Cl)cc1F [Compound B8]	5 (Grade 5: the growth control rate is greater than or equal to 85%)	5 (Grade 5: the growth control rate is greater than or equal to 85%)	5 (Grade 5: the growth control rate is greater than or equal to 85%)	5 (Grade 5: the growth control rate is greater than or equal to 85%)	5 (Grade 5: the growth control rate is greater than or equal to 85%)	5 (Grade 5: the growth control rate is greater than or equal to 85%)	1 (Grade 1: the growth control rate is greater than or equal to 5% and less than 20%)	2 (Grade 2: the growth control rate is greater than or equal to 20% and less than 40%)	3 (Grade 3: the growth control rate is greater than or equal to 40% and less than 60%)	5 (Grade 5: the growth control rate is greater than or equal to 85%)	5 (Grade 5: the growth control rate is greater than or equal to 85%)	5 (Grade 5: the growth control rate is greater than or equal to 85%)	2 (Grade 2: the growth control rate is greater than or equal to 20% and less than 40%)	3 (Grade 3: the growth control rate is greater than or equal to 40% and less than 60%)	4 (Grade 4: the growth control rate is greater than or equal to 60% and less than 85%)	5 (Grade 5: the growth control rate is greater than or equal to 85%)	5 (Grade 5: the growth control rate is greater than or equal to 85%)	5 (Grade 5: the growth control rate is greater than or equal to 85%)
O=C1C2=C(CCCC2)C(=O)N1c1cc(OCc2nnc(-c3cccc(Br)c3)o2)c(Cl)cc1F [Compound B10]	4 (Grade 4: the growth control rate is greater than or equal to 60% and less than 85%)	5 (Grade 5: the growth control rate is greater than or equal to 85%)	5 (Grade 5: the growth control rate is greater than or equal to 85%)	4 (Grade 4: the growth control rate is greater than or equal to 60% and less than 85%)	5 (Grade 5: the growth control rate is greater than or equal to 85%)	5 (Grade 5: the growth control rate is greater than or equal to 85%)	1 (Grade 1: the growth control rate is greater than or equal to 5% and less than 20%)	2 (Grade 2: the growth control rate is greater than or equal to 20% and less than 40%)	3 (Grade 3: the growth control rate is greater than or equal to 40% and less than 60%)	5 (Grade 5: the growth control rate is greater than or equal to 85%)	5 (Grade 5: the growth control rate is greater than or equal to 85%)	5 (Grade 5: the growth control rate is greater than or equal to 85%)	2 (Grade 2: the growth control rate is greater than or equal to 20% and less than 40%)	3 (Grade 3: the growth control rate is greater than or equal to 40% and less than 60%)	4 (Grade 4: the growth control rate is greater than or equal to 60% and less than 85%)	5 (Grade 5: the growth control rate is greater than or equal to 85%)	5 (Grade 5: the growth control rate is greater than or equal to 85%)	5 (Grade 5: the growth control rate is greater than or equal to 85%)
